Source: patent US20100168175A1, “ATPENINS” (priority 2008, published 2010)
Where two headings read alike, the source gives them in different places.

Legend:
[1] = system: Phytophthora infestans; experiment: whole plant or invertebrate; assay type: in vivo; details: in Solanum lycopersicum, 168 h, read-out: Efficacy in %
[2] = system: Alternaria solani; experiment: Alternaria test (tomato)/protective; assay type: in vivo; details: young tomato plants, protective spray, application rate 500 (in ppm g/ha [sic]), evaluation 7 days after inoculation; 0% = control, 100% = no infection
[3] = system: Sphaerotheca fuliginea; experiment: Sphaerotheca test (cucumber)/protective; assay type: in vivo; details: Podosphaera fuliginea, 168 h, read-out: Efficacy in %
[4] = log P by HPLC on a reversed-phase column (C18), EEC Directive 79/831 Annex V.A8; assay type: physicochemical; details: reversed-phase HPLC column (Kromasil 100 C18), H3PO4
Protocol: The stated log P values were determined in accordance with EEC Directive 79/831 Annex V.A8 by HPLC (High Performance Liquid Chromatography) on a reversed-phase column (C18).
HP1100 LC System (UV/DAD); Kromasil 100 C18, 3.5 μm, 75×2.0 mm; mobile phase A: acetonitrile (0.1% formic acid); mobile phase B: water (0.09% formic acid); linear gradient from 10% acetonitrile to 95% acetonitrile over 8.5 min, then 95% acetonitrile for a further 3.5 min; oven temperature 43° C.; flow rate: 0.5 ml/min
HP1100 LC System (UV/DAD); Kromasil 100 C18, 3.5 μm, 70×3.1 mm; mobile phase A: acetonitrile (0.1% phosphoric acid); mobile phase B: water (0.1% phosphoric acid); linear gradient from 10% acetonitrile to 95% acetonitrile over 8.5 min, then 95% acetonitrile for a further 3 min; oven temperature 43° C.; flow rate: 1 ml/min

[5] = young cucumber plants, protective spray, application rate 100 g/ha, evaluation 7 days after inoculation, 0% = control, 100% = no infection

| Structure (SMILES) | pest or weed control at 500 ppm [1] | Efficacy in % [2] | other results |
| --- | --- | --- | --- |
| COc1[nH]c(=O)c(C(=O)C(C)CCCc2ccccc2)c(O)c1OC (stereo not drawn) [Compound I-158] | 60% | 50% |  |
| CCC(C)CC(C)C(=O)c1c(O)c(OC)c(OC)[nH]c1=O (stereo not drawn) [Compound I-219] |  | 50% |  |
| COc1[nH]c(=O)c(C(=O)C(C)CC(F)(F)F)c(O)c1OC (stereo not drawn) [Compound I-197] |  |  | pest or weed control at 100 g/ha [3, 5]: 100% |
| COc1ccc(Cn2c(OC)c(OC)c(O)c(C(=O)Nc3ccc(-c4ccccc4)cc3)c2=O)cc1 [Compound I-75] |  | 70% |  |
| CCCCCCC(CCCC)C(=O)c1c(O)c(OC)c(OC)[nH]c1=O (stereo not drawn) [Compound I-212] |  | 71% |  |
| COc1[nH]c(=O)c(C(=O)C(C)CC(C)Cc2ccccc2)c(O)c1OC (stereo not drawn) [Compound I-160] |  | 70% |  |
| COc1[nH]c(=O)c(C(=O)C(C)c2ccc(Cl)cc2)c(O)c1OC (stereo not drawn) [Compound I-204] |  |  | pest or weed control at 100 g/ha [3, 5]: 85% |
| COc1[nH]c(=O)c(C(=O)c2ccc(Cl)cc2)c(O)c1OC [Compound I-122] | 56% |  |  |
| COc1[nH]c(=O)c(C(=O)C(C)C2CCCCC2)c(O)c1OC (stereo not drawn) [Compound I-149] |  | 80% |  |
| COc1ccc(Cn2c(O)c(OC)c(O)c(C(=O)C3CCCCCC3)c2=O)cc1 [Compound I-111] | 89% |  |  |
| COc1[nH]c(=O)c(C(=O)c2ccc(C)cc2)c(O)c1OC [Compound I-55] | 56% |  |  |
| COc1[nH]c(=O)c(C(=O)C(C)CCC(C)(C)C)c(O)c1OC (stereo not drawn) [Compound I-228] |  | 80% |  |
| COc1ccc(Cn2c(OC)c(OC)c(O)c(C(C)=O)c2=O)c(OC)c1 [Compound I-66] |  | 94% |  |
| COc1[nH]c(=O)c(C(=O)c2ccc3ccccc3c2)c(O)c1OC [Compound I-221] | 80% | 93% |  |
| COc1ccc(Cn2c(O)c(OC)c(O)c(C(=O)C3CCCC3)c2=O)c(OC)c1 [Compound I-69] | 50% |  |  |
| COc1ccc(Cn2c(O)c(OC)c(O)c(C(=O)C(C)CC(F)(F)F)c2=O)cc1 (stereo not drawn) [Compound I-180] | 50% |  |  |
| COc1[nH]c(=O)c(C(=O)C(C)Cc2ccc(C(F)(F)F)cc2)c(O)c1OC (stereo not drawn) [Compound I-141] | 70% | 80% |  |
| COc1c(O)c(C(=O)C(C)C)c(=O)n(Cc2ccccc2)c1OC [Compound I-108] |  | 67% |  |
| COc1[nH]c(=O)c(C(=O)C(C)CCC2CCCC2)c(O)c1OC (stereo not drawn) [Compound I-240] |  |  | pest or weed control at 100 g/ha [3, 5]: 98% |
| COc1ccc(Cn2c(OC)c(OC)c(O)c(C(=O)C(C)C/C=C\COCc3ccccc3)c2=O)cc1 (stereo not drawn) [Compound I-157] |  | 50% |  |
| CCCC(C)c1ccccc1NC(=O)c1c(O)c(OC)c(OC)[nH]c1=O (stereo not drawn) [Compound I-139] | 60% |  |  |

| Structure (SMILES) | pest or weed control at 500 ppm [1] | Efficacy in % [2] | other results |
| --- | --- | --- | --- |
| COc1ccc(Cn2c(O)c(OC)c(O)c(C(=O)C3CCC(C)CC3)c2=O)cc1 (stereo not drawn) [Compound I-101] | 78% |  |  |
| COc1ccc(Cn2c(OC)c(OC)c(O)c(C(=O)Cc3ccc(Br)cc3)c2=O)cc1 [Compound I-107] | 78% |  |  |
| CCCC1CCC(C(=O)c2c(O)c(OC)c(OC)n(Cc3ccc(OC)cc3)c2=O)CC1 (stereo not drawn) [Compound I-184] |  | 56% |  |
| CCC(=O)c1c(O)c(OC)c(OC)n(Cc2ccc(OC)cc2)c1=O [Compound I-48, 4-Hydroxy-5,6-dimethoxy-1-(4-methoxybenzyl)-3-propanoylpyridin-2(1H)-one] | 63% | 57% |  |
| COc1ccc(Cn2c(OC)c(OC)c(O)c(C(=O)CCc3ccc(Oc4ccc(Cl)cc4)cc3)c2=O)cc1 [Compound I-89] | 50% |  | chromatographic logP [4]: 5.75 |
| CCCC(C)C(=O)c1c(O)c(OC)c(OC)[nH]c1=O (stereo not drawn) [Compound I-129] | 56% |  | pest or weed control at 100 g/ha [3]: 98% |
| COc1ccc(Cn2c(OC)c(OC)c(O)c(C(=O)C3CC=CCC3)c2=O)c(OC)c1 (stereo not drawn) [Compound I-110] | 78% |  |  |
| COc1[nH]c(=O)c(C(=O)C2CCC(C)CC2)c(O)c1OC (stereo not drawn) [Compound I-121] |  | 56% |  |
| COc1[nH]c(=O)c(C(=O)C(C)CCC(C)C)c(O)c1OC (stereo not drawn) [Compound I-153] |  | 90% |  |
| COc1[nH]c(=O)c(C(=O)C(C)CC(C)C)c(O)c1OC (stereo not drawn) [Compound I-138, 3-(2,4-Dimethylpentanoyl)-4-hydroxy-5,6-dimethoxypyridin-2(1H)-one] |  |  | pest or weed control at 100 g/ha [3, 5]: 96% |
| COc1ccc(Cn2c(OC)c(OC)c(O)c(C(=O)C(C)Cc3c(Cl)cccc3Cl)c2=O)cc1 (stereo not drawn) [Compound I-172, 3-[3-(2,6-Dichlorophenyl)-2-methylpropanoyl]-4-hydroxy-5,6-dimethoxy-1-(4-methoxybenzyl)pyridin-2(1H)-one] | 71% |  |  |
| CCCCC(C)C(=O)c1c(O)c(OC)c(OC)[nH]c1=O (stereo not drawn) [Compound I-230] |  | 70% | pest or weed control at 100 g/ha [3]: 98% |
| CCC(CC)CC(C)C(=O)c1c(O)c(OC)c(OC)[nH]c1=O (stereo not drawn) [Compound I-74] |  |  | pest or weed control at 100 g/ha [3]: 100% |
| COc1[nH]c(=O)c(C(=O)C2CC2)c(O)c1OC [Compound I-130] | 56% |  |  |
| COc1[nH]c(=O)c(C(=O)CCc2ccccc2C)c(O)c1OC [Compound I-72] |  | 50% |  |
| C/C=C/CC(C)C(=O)c1c(O)c(OC)c(OC)[nH]c1=O (stereo not drawn) [Compound I-1, 4-Hydroxy-5,6-dimethoxy-3-[(4E)-2-methylhex-4-enoyl]pyridin-2(1H)-one] | 0% | 0% | pest or weed control at 100 g/ha [3]: 77% |
| COc1ccc(Cn2c(OC)c(OC)c(O)c(C(=O)c3ccc(C)cc3)c2=O)cc1 [Compound I-49] | 50% |  |  |
| COc1ccc(Cn2c(OC)c(OC)c(O)c(C(=O)CCCCc3ccccc3)c2=O)cc1 [Compound I-28] | 50% |  |  |
| COc1[nH]c(=O)c(C(=O)C(C)CC2CCC(C(C)C)CC2)c(O)c1OC (stereo not drawn) [Compound I-164] |  | 90% | chromatographic logP [4]: 5.41 |
| CCCCCC(C)C(=O)c1c(O)c(OC)c(O)n(Cc2ccc(OC)cc2)c1=O (stereo not drawn) [Compound I-178, 4,6-Dihydroxy-5-methoxy-1-(4-methoxybenzyl)-3-(2-methylheptanoyl)pyridin-2(1H)-one] | 60% |  |  |
